Measured values published in patent US10029986B2, “Alkynyl pyridine-substituted amide compound and pesticide” (NISSAN CHEMICAL INDUSTRIES, LTD., priority 2014, dated 2018).

Key:
Botrytis cinerea [1] = test: Test on the preventive effect against cucumber gray mold (spore inoculation); format: in vivo; conditions: 72 h, test solution A 500 ppm, 5 ml per pot, cucumber cut leaves, conidium inoculation, 3 days at 20° C.
In short: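 Cotyledon-stage cucumber (Sagami Hanjiro) sprayed with 500 ppm compound from emulsifiable concentrate; detached treated leaves inoculated with B. cinerea conidia in PDA (1:1). After 3 days at 20 °C, humid, lesion proportion gave control value; duplicate test.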

Botrytis cinerea [2] = test: Test on the preventive effect against cucumber gray mold (mycelium inoculation); format: in vivo; conditions: 48 h, test solution A 500 ppm, 5 ml per pot, cucumber cotyledon, agar block inoculation, 2 days at 20° C.
In short: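 Cucumber cotyledons (Sagami Hanjiro) were sprayed with 5 ml per pot of a 500 ppm dilution of a 20 wt % emulsifiable concentrate. Next day, mycelial agar plugs of Botrytis cinerea were placed on cotyledons, held humid at 20° C for 2 days. Lesion proportion gave the control value; duplicate.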

[3] = test system: Colletotrichum lagenarium (Synonym: Colletotrichum orbiculare); test: Test on the preventive effect against cucumber anthracnose; format: in vivo; conditions: 168 h, test solution A 500 ppm, 5 ml per pot sprayed, 2 days inoculation chamber then 7 days at 23° C.
Protocol: Compounds of the present invention were dissolved in a solvent for emulsion (a mixture of Sorpol (registered trademark) 3005XL (manufactured by Toho Chemical Industry Co., Ltd.): N-methylpyrrolidone: Solvesso (registered trademark) 200 (manufactured by ExxonMobil Chemical) in a ratio of 1:5:2) to prepare 20 wt % emulsifiable concentrates. Then, distilled water was added to dilute the emulsifiable concentrates to the prescribed concentration (500 ppm), and the obtained solutions were used in the following the Test Examples 1 to 8. Cucumber (varieties: Sagami Hanjiro) was seeded in 90 cm^3 plastic pot, and at the cotyledon stage, 5 ml per pot of test solution A of the compounds of the present invention was sprayed. One day later, a suspension of conidium of Colletotrichum lagenarium (Synonym: Colletotrichum orbiculare) was sprayed, and the pot was left for 2 days in the inoculation chamber at 25° C. under humidity of 100% RH. Thereafter, the pot was placed in an air-conditioned greenhouse (23° C.) and left at the same temperature for 7 days. Thereafter, the proportion of the formed lesion in the inoculated leaves were measured to calculate the control value in accordance with the same formula as in Test Example 1. The test was carried out in duplicate.

[4] = test system: Southern root-knot nematode (Meloidogyne incoqnita); test: Insecticidal test against Southern root-knot nematode (eggs, 96 well plate); format: in vivo; conditions: 96 h, test solution B 100 ppm, 10 μl per well, 25° C. dark, 4 days after treatment, read-out: efficacy (unhatched eggs + inactive larvae relative to non-treated)
Protocol: Compounds of the present invention were dissolved in dimethyl sulfoxide to prepare 1 wt % solutions. Then, distilled water was added to dilute the solutions to the prescribed concentration (100 ppm), and the obtained solutions were used in the following the Test Examples 9 to 12. 60 μl of a potato dextrose 1% agar medium was added to each well of a 96 well plate, and 30 μl of sterilized water containing eggs of Southern root-knot nematode (Meloidogyne incoqnita) (10 eggs/3 μl) was added to each well. Further, 10 μl per well of test solution B of the compounds of the present invention was added, and the plate was left at rest at 25° C. under dark conditions.

Puccinia recondita = test: Test on the preventive effect against wheat leaf rust; format: in vivo; conditions: 216 h, test solution A 500 ppm, 5 ml per pot, wheat 1.3-leaf stage, 1 day inoculation chamber then 8 days at 20° C.
Protocol: Compounds of the present invention were dissolved in a solvent for emulsion (a mixture of Sorpol (registered trademark) 3005XL (manufactured by Toho Chemical Industry Co., Ltd.): N-methylpyrrolidone: Solvesso (registered trademark) 200 (manufactured by ExxonMobil Chemical) in a ratio of 1:5:2) to prepare 20 wt % emulsifiable concentrates. Then, distilled water was added to dilute the emulsifiable concentrates to the prescribed concentration (500 ppm), and the obtained solutions were used in the following the Test Examples 1 to 8. Wheat (varieties: Norin 61) was seeded in 90 cm^3 plastic pot, and at 1.3-leaf stage, 5 ml per pot of test solution A of the compounds of the present invention was applied. One day after treatment, a suspension of spores of Puccinia recondita was sprayed to the wheat, and the pot was left in the inoculation chamber at 20° C. under humidity of 100% RH for 1 day. Thereafter, the pot was placed in an air-conditioned greenhouse (20° C.) for 8 days. The proportion of the formed lesion in the inoculated leaves were counted to calculate the control value in accordance with the same formula as in the Test Example 1. The test was carried out in duplicate.

melting point [°C]	SMILES	pest or weed control at 500 µg/mL (Botrytis cinerea [1]) [%]	pest or weed control at 500 µg/mL (Botrytis cinerea [2]) [%]	pest or weed control at 500 µg/mL [3] [%]	pest or weed control at 100 µg/mL [4] [%]	pest or weed control at 500 µg/mL (Puccinia recondita) [%]
100 to 101	Cn1cc(C(=O)NCC(F)(F)c2ncc(C#CC3CC3)cc2Cl)c(C(F)F)n1 [8-003]	≥ 70	≥ 70	≥ 70	≥ 50	–
127 to 130	CC(Cc1ncc(C#CC2CC2)cc1Cl)NC(=O)c1cn(C)nc1C(F)F (centres unmarked) [8-024, N-[2-[3-chloro-5-(cyclopropylethynyl)pyridin-2-yl]-1-methylethyl]-3-difluoromethyl-1-methyl-1H-pyrazole-4-carboxamide]	≥ 70	≥ 70	≥ 70	–	≥ 70

The next lines start with the molecule.

SMILES	melting point [°C]	pest or weed control at 500 µg/mL (Botrytis cinerea [1]) [%]	pest or weed control at 500 µg/mL (Botrytis cinerea [2]) [%]	pest or weed control at 500 µg/mL [3] [%]	pest or weed control at 100 µg/mL [4] [%]	pest or weed control at 500 µg/mL (Puccinia recondita) [%]
CC#Cc1cnc(CCNC(=O)c2ccccc2C(F)(F)F)c(Cl)c1 [1-001, N-[2-[3-chloro-5-(1-propynyl)pyridin-2-yl]ethyl]-2-(trifluoromethyl)benzamide]	100 to 103	≥ 70	≥ 70	≥ 70	≥ 50	–
O=C(NCCc1ncc(C#CC2CC2)cc1Cl)c1ccccc1C(F)(F)F [1-002]	105 to 108	≥ 70	≥ 70	≥ 70	≥ 50	–
O=C(NCC(F)(F)c1ncc(C#CC2CC2)cc1Cl)c1ccccc1C(F)(F)F [1-005]	137 to 139	≥ 70	≥ 70	≥ 70	≥ 50	–
CC(C)(C)C#Cc1cnc(CCNC(=O)c2cccnc2C(F)F)c(Cl)c1 [3-002]	144 to 146	≥ 70	≥ 70	≥ 70	≥ 50	≥ 70
O=C(NCC(F)(F)c1ncc(C#CC2CC2)cc1Cl)c1cccnc1C(F)F [3-003, N-[2-[3-chloro-5-(cyclopropylethynyl)pyridin-2-yl]-2,2-difluoroethyl]-2-(difluoromethyl)nicotinamide]	116 to 118	≥ 70	≥ 70	≥ 70	≥ 50	≥ 70
CC(CNC(=O)c1cccnc1C(F)F)c1ncc(C#CC2CC2)cc1Cl (centres unmarked) [3-006]	–	≥ 70	≥ 70	≥ 70	≥ 50	–
O=C(NCC(c1ncc(C#CC2CC2)cc1Cl)C1CC1)c1cccnc1C(F)F (centres unmarked) [3-008]	–	≥ 70	≥ 70	≥ 70	≥ 50	≥ 70
CSC(CNC(=O)c1cccnc1C(F)F)c1ncc(C#CC2CC2)cc1Cl (centres unmarked) [3-020]	–	≥ 70	≥ 70	≥ 70	≥ 50	≥ 70
Cn1cc(C(=O)NCC(c2ncc(C#CC3CC3)cc2Cl)C2CC2)c(C(F)F)n1 (centres unmarked) [8-009]	–	≥ 70	≥ 70	≥ 70	–	≥ 70
CSC(CNC(=O)c1cn(C)nc1C(F)F)c1ncc(C#CC2CC2)cc1Cl (centres unmarked) [8-020, N-[2-[3-chloro-5-(cyclopropylethynyl)pyridin-2-yl]-2-(methylthio)ethyl]-3-difluoromethyl-1-methyl-1H-pyrazole-4-carboxamide]	–	≥ 70	≥ 70	≥ 70	–	–
CC(Cc1ncc(C#Cc2ccccc2)cc1Cl)NC(=O)c1cn(C)nc1C(F)F (centres unmarked) [8-027]	–	≥ 70	≥ 70	≥ 70	–	≥ 70
Cc1nc(C(F)F)c(C(=O)NCC(C)c2ncc(C#CC3CC3)cc2Cl)s1 (centres unmarked) [9-002]	–	≥ 70	≥ 70	≥ 70	–	–
